Test results taken from patent publication US8288139B2, “Sulfotransferase inhibitors” (Seikagaku Corporation, priority 2002, dated 2012).

Molecular target: T1, human-derived GalNAc4S6ST (Homo sapiens, UniProt Q7LFX5)
T1 construct: made in house
T1 sequence (Q7LFX5 1-561): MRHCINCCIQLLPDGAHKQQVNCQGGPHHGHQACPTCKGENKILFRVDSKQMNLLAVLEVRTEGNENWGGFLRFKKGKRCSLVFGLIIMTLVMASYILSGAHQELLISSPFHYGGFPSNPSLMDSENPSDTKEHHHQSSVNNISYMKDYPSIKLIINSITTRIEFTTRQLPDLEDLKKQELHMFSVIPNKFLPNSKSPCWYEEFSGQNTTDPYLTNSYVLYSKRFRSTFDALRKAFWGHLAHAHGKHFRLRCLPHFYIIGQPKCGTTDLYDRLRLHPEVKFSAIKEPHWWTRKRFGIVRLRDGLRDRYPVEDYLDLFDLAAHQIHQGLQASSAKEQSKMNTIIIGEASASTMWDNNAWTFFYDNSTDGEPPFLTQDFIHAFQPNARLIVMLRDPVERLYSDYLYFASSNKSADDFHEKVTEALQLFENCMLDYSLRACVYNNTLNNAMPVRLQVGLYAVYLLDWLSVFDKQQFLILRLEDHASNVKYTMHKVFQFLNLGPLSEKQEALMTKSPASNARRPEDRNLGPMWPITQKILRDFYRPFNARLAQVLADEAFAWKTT
Assay: Inhibition of GalNAc4S6ST enzyme activity ([35S]PAPS sulfate transfer to chondroitin sulfate A)
Assay type: biochemical
Conditions: for strength of inhibitory activity upon GalNAc4S6ST, α type and β type of the same formula compared: Substance 1 vs 2, 3 vs 4, 5 vs 6, 50, 125 or 250 nmol in 50 μl reaction; for inhibitory activity upon GalNAc4S6ST (relative value of the enzyme reaction, system without substance = 100%): substance added at 50 nmol, 125 nmol or 250 nmol to 50 μl reaction, 37° C., 20 minutes, values only in FIG. 1-3
Method: The enzyme activity was measured by modifying the method described in J. Biol. Chem., 276, 43894-43900 (2001). As the standard reaction solution, 2.5 μmol of imidazole-HCl (pH 6.8), 0.5 μmol of CaCl2, 1 μmol of reduced type glutathione, 25 nmol in galactosamine equivalent of chondroitin sulfate A (derived from whale cartilage, manufactured by Seikagaku Corporation), 50 pmol of [^35S]PAPS (active sulfate: about 5.0×10^5 cpm: prepared according to Anal Biochem., 148, 303-310 (1985)), and human-derived GalNAc4S6ST prepared according to the method described in J. Biol. Chem., 276, 43894-43900 (2001) were added to 50 μl. The reaction was started by adding each of Substance 1 of the present invention, Substance 2 of the present invention, Substance 3 of the present invention, Substance 4 of the present invention, Substance 5 of the present invention and Substance 6 of the present invention to this reaction system to give a final concentration of 50 nmol, 125 nmol or 250 nmol.
The reaction was carried out by incubating the reaction solution at 37° C. for 20 minutes, and the reaction was terminated by heating the reaction tubes in boiling water for 1 minute. After termination of the reaction, 3 volumes of ethanol containing 1.3% potassium acetate was added thereto to thereby precipitate the ^35S-labeled glycosaminoglycan, followed by gel chromatography using a high performance desalting column according to the method described in J. Biol. Chem., 268, 21968-21974 (1993), and then the radioactivity was measured by using a scintillation counter. A reaction system to which the enzyme was not added was used as the negative control.
By using the enzyme activity of a system to which the substance of the present invention was not added as the positive control and regarding it as 100%, relative values of the enzyme reaction in a system to which the substance of the present invention was added were calculated (Substance 1 of the present invention and Substance 2 of the present invention: FIG. 1, Substance 3 of the present invention and Substance 4 of the present invention: FIG. 2, Substance 5 of the present invention and Substance 6 of the present invention: FIG. 3).

strength of inhibitory activity upon GalNAc4S6ST, α type and β type of the same formula compared | inhibitory activity upon GalNAc4S6ST (relative value of the enzyme reaction, system without substance = 100%) | Structure (SMILES)
stronger inhibitory activity |  | CC(=O)NC1[C@H](Oc2ccccc2)OC(CO)[C@H](OS(=O)(=O)O)[C@@H]1O (stereo partly shown) [Substance 6]
 | inhibitory activity was observed | CC(=O)NC1[C@@H](Oc2ccccc2)OC(COS(=O)(=O)O)[C@H](O)[C@@H]1O (stereo partly shown) [Substance 1]
particularly strong | inhibitory activity was observed | CC(=O)NC1[C@H](Oc2ccccc2)OC(COS(=O)(=O)O)[C@H](O)[C@@H]1O (stereo partly shown) [Substance 2]
